The values that follow come from patent publication US5688938A, “Calcium receptor-active molecules” (priority 1995, dated 1997).

Data set [1] concerns osteoclast calcium receptor. The experiment in a line: [Ca^2+]i (indo-1) in rat osteoclasts. The class given is cell-based.
Data set [2] can be described thus: serum/blood calcium, PTH, albumin and phosphate in rats, intraperitoneal. The class given is in vivo, rat. The settings on record: rat, i.p. The protocol: Compounds shown to activate the bovine parathyroid cell calcium receptor in vitro were tested for hypocalcemic activity in vivo. […] […] […] Serum total calcium, albumin and phosphate were measured by techniques well known in the art.

The next data set is described as follows: net positive charge. The note with it: for Net (+) Charge: Table 1, at physiological pH. The class given is physicochemical.
The target in data set [3] is T1, parathyroid cell calcium receptor (Bos taurus, UniProt P35384).
T1 sequence (P35384 21-1085 limits assumed): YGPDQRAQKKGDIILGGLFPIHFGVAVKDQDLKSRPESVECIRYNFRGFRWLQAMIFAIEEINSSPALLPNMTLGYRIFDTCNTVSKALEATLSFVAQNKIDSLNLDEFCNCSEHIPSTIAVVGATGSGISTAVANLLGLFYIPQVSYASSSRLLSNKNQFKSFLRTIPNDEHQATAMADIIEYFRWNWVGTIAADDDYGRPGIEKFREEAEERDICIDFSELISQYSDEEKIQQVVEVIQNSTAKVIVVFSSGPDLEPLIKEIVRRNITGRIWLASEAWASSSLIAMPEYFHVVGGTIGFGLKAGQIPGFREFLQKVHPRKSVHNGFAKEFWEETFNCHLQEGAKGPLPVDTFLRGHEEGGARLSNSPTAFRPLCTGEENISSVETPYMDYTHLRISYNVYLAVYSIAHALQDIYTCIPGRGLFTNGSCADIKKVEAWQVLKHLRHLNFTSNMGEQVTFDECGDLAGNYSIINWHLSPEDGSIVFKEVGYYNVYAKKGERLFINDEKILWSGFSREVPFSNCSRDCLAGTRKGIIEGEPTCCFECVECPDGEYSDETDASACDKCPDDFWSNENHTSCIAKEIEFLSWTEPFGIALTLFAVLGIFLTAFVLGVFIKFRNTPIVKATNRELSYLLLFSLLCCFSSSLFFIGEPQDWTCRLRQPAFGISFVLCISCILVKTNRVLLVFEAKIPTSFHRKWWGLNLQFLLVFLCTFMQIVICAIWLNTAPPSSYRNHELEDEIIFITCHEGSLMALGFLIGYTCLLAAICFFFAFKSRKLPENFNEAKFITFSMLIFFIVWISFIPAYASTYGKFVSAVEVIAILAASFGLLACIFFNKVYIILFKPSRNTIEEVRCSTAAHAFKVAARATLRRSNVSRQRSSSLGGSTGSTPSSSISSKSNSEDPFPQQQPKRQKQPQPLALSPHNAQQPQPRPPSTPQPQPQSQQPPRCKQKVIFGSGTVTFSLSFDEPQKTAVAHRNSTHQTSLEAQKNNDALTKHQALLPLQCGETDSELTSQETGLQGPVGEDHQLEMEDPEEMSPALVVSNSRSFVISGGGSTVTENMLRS
Kind of data set: cell-based. The class given is cell-based. The note with it: for potentiation of mobilization of intracellular Ca^2+ elicited by extracellular divalent cations / change in [Ca^2+]i at low extracellular Ca^2+ / increase in [Ca^2+]i at intermediate extracellular Ca^2+: 100 μM; for change in [Ca^2+]i at low extracellular Ca^2+: 0.5 mM extracellular Ca^2+; for increase in [Ca^2+]i at intermediate extracellular Ca^2+: 1-[…] extracellular Ca^2+; for effect on intracellular Ca^2+: 500 μM; for effect on [Ca^2+]i response to extracellular Mg^2+: ionomycin 1 μM, 1799 5 μM; for effect on basal [Ca^2+]i or increases evoked by extracellular Ca^2+: 1 μM.
Protocol: For example,.bovine parathyroid cells loaded with fura-2 are initially suspended in buffer containing 0.5 mM CaCl2. A test substance is added to the cuvette in a small volume (5-15 μl) and changes in the fluorescence signal are measured. Cumulative increases in the concentration of the test substance are made in the cuvette until some predetermined concentration is achieved or no further changes in fluorescence are noted.
This section describes procedures used to obtain and treat parathyroid cells from calves and humans. […] Human parathyroid glands, were obtained from patients undergoing surgical removal of parathyroid tissue for primary or uremic hyperparathyroidism (uremic HPT), and were treated similarly to bovine tissue.
Glands were trimmed of excess fat and connective tissue and then minced with fine scissors into cubes approximately 2-3 mm on a side. Dissociated parathyroid cells were prepared by collagenase digestion and then purified by centrifugation in Percoll buffer. The resultant parathyroid cell preparation was essentially devoid of red blood cells, adipocytes, and capillary tissue as assessed by phase contrast microscopy and Sudan black B staining. Dissociated and purified parathyroid cells were present as small clusters containing 5 to 20 cells.
The cells were then transferred to plastic flasks (75 or 150 cm^2 ; Falcon) and incubated overnight at 37° C. in a humid atmosphere of 5% CO2. No serum is added to these overnight cultures, since its presence allows the cells to attach to the plastic, undergo proliferation, and dedifferentiate. Cells cultured under the above conditions were readily removed from the flasks by decanting, and show the same viability as freshly prepared cells.
The cells were then pelleted, resuspended in the same buffer, but lacking the ester, and incubated a further 15 minutes at 37° C. The cells were subsequently washed twice with PCB containing 0.5 mM CaCl2 and 0.5% BSA and maintained at room temperature (about 20° C.). Immediately before use, the cells were diluted five-fold with prewarmed 0.5mM CaCl2 -PCB to obtain a final BSA concentration of 0.1%. The concentration of cells in the cuvette used for fluorescence recording was 1-2×10^6 /ml.
The fluorescence of indicator-loaded cells was measured at 37° C. in a spectrofluorimeter (Biomedical Instrumentation Group, University of Pennsylvania, Philadelphia, Pa.) equipped with a thermostated cuvette holder and magnetic stirrer using excitation and emission wavelengths of 340 and 510 nm, respectively. […] Leakage of dye is dependent on temperature and most occurs within the first 2 minutes after warming the cells in the cuvette. Dye leakage increases only very slowly thereafter. To correct the calibration for dye leakage, cells were placed in the cuvette and stirred at 37° C. for 2-3 minutes. The cell suspension was then removed, the cells pelleted, and the supernatant returned to a clean cuvette. […] This estimate was subtracted from the apparent Fmin.
Dissociated bovine parathyroid cells were purified on gradients of Percoll and cultured overnight in serum-free medium. […] That is,

The test system of data set [4] is Ca^2+ influx in parathyroid cells. Kind of data set: influx of extracellular Ca^2+ in bovine parathyroid cells. The class given is cell-based. The settings on record: for [Ca^2+]i: 100 to 1000 μM, 2 mM CaCl2; for effect on increases in [Ca^2+]i elicited by extracellular Ca^2+: pretreatment.
Data set [5] deals with T2, bovine parathyroid cell calcium receptor (Bos taurus, UniProt P35384).
T2 construct: expressed in transfected cells; host or cells: Xenopus laevis oocytes injected with cRNA from BoPCaR 1
T2 sequence (P35384 21-1085 limits assumed): T1 sequence (P35384 21-1085 limits assumed)
Kind of data set: Cl^- current in Xenopus oocytes expressing BoPCaR 1. The class given is cell-based. The note with it: 1 mM extracellular Ca^2+. The procedure: These responses are mediated by the following series of biochemical events:
Xenopus oocytes were injected with BoPCaR 1, the 5.3 Kb cDNA encoding a bovine parathyroid cell calcium receptor as described in Example 25. After two to three days, Cl^- currents were examined in the oocytes using a two-electrode voltage clamp.
Xenopus oocytes were injected with BoPCaR 1 as described in Example 25. After two to three days, Cl^- currents were examined in the oocytes using two electrode voltage clamp.

Entries after “also recorded” stand apart in the source; their conditions may differ. Where two headings read alike, the source gives them in different places.

One may read the EC50 as the concentration at which the effect is half-maximal. Turning to `CC(NCCCc1ccccc1)c1ccc(Cl)cc1` (racemic) [Compound 1H], in data set [1] (Table 6, rat osteoclasts), the EC50 came to 250 µM.
With `COc1cccc(C(C)NCCCc2ccccc2)c1` (racemic) [NPS 467], in data set [2], the “reduction in serum or whole blood Ca^2+” value was “dose-dependent reduction in serum or whole blood Ca^2+” and the “time to return toward control levels” value is 24 h. Further, the “change in serum albumin or phosphate” value in data set [2] (all doses) is “no change in serum albumin or phosphate levels”. Further, the “circulating PTH” value in data set [2] (preliminary studies) is reported as “dose-dependent reduction in circulating levels of PTH”.
On to `N=C(N)NCCC[C@H](N)C(=O)NCCCNCCCNCCCCCNC(=O)[C@H](CC(N)=O)NC(=O)Cc1c[nH]c2cccc(O)c12` [Argiotoxin-659, reference compound], for which the “Net (+) Charge” value in “net positive charge” was “+4”. The EC50 was found to be 300 µM in data set [3] and 300 µM in data set [3] (EC50 for mobilizing intracellular Ca^2+, bovine parathyroid cells). The “increases in [Ca^2+]i” value in data set [3] (100 to 300 μM) is “evoked transient increases in [Ca^2+ ]i”.
`NC[C@H]1O[C@H](O[C@H]2[C@H](O)[C@@H](O[C@H]3O[C@H](CO)[C@@H](O)[C@H](N)[C@H]3O)[C@H](N)C[C@@H]2N)[C@H](N)[C@@H](O)[C@@H]1O` [Bekanamycin]: in the data set “net positive charge”, the “Net (+) Charge” value was “+5” and the “net positive charge at pH 7.3” value is given as “+5”.
With `COc1ccc(CCN(C)CCCC(C#N)(c2cc(OC)c(OC)c(OC)c2)C(C)C)cc1OC` [Compound D-600, reference compound], in data set [3], the “potentiation of mobilization of intracellular Ca^2+ elicited by extracellular divalent cations” value is reported as “potentiated the mobilization”; the “change in [Ca^2+]i at low extracellular Ca^2+” value is “evoked no change in [Ca^2+ ]i”; the “increase in [Ca^2+]i at intermediate extracellular Ca^2+” value is “small, but robust increase”. In data set [4] (100 μM), the “block of influx of extracellular Ca^2+” value was “blocked the influx”.
For `NCCCCCCCCCCCCN` [DADD, 1,12-diaminododecane], the “Net (+) Charge” value in the data set “net positive charge” is “+2”. Further, in data set [4], the “[Ca^2+]i” value is “prompt fall in [Ca^2+ ]i” and the “effect on increases in [Ca^2+]i elicited by extracellular Ca^2+” value was “depresses steady-state, but not transient increases in [Ca^2+ ]i”.
As to `NC[C@H]1O[C@H](O[C@H]2[C@H](O)[C@@H](O[C@H]3O[C@H](CO)[C@@H](O)[C@H](N)[C@H]3O)[C@H](N)C[C@@H]2N)[C@H](O)[C@@H](O)[C@@H]1O` [Kanamycin, reference compound], in “net positive charge”, the “net positive charge at pH 7.3” value is reported as “~+4.5”. Further, the “effect on intracellular Ca^2+” value in data set [3] is recorded as “without effect”.
As for `NCCCNCCCCNCCCNCCCN(O)CCCNC(=O)Cc1c[nH]c2ccccc12` [NPS 017, reference compound], the “Cl^- current” value in data set [5] is listed as “oscillatory increases in the Cl^- current”.
As to `NCCCN(CCCN)CCCN(CCCN)CCCCN(CCCN)CCCN(CCCN)CCCN` [NPS 381, N^1, N^1, N^5, N^10, N^14, N^14-hexakis-(3-aminopropyl) spermine], the “Net (+) Charge” value in “net positive charge” was “+10”.
Consider `NCCCN(CCCN)CCCNCCCCNCCCN(CCCN)CCCN` [NPS 382, N^1, N^1, N^5, N^14, N^14-tetrakis-(3-aminopropyl)spermine], for which the “Net (+) Charge” value in “net positive charge” is “+8”.
Still for that read-out and setting: the entry for `NCCCN1CCCN(CCCN)CCN(CCCN)CCCN(CCCN)CC1` [NPS 383] is “+8”.
For the molecule `COc1ccc(CC(=O)NCCCCCCCCCCCCN)cc1OC` [NPS 384], in data set [3] (300 μM), the “increase in [Ca^2+]i” value is “did not evoke an increase in [Ca^2+ ]i” and the “potentiation of transient increases in [Ca^2+]i” value is “fails to do so”. In addition, the “block of influx of extracellular Ca^2+” value in data set [4] (300 μM) was “blocked influx of extracellular Ca^2+”. Further, in data set [4], the “[Ca^2+]i” value is “prompt fall in [Ca^2+ ]i” and the “effect on increases in [Ca^2+]i elicited by extracellular Ca^2+” value was “depresses steady-state, but not transient increases in [Ca^2+ ]i”.
As for `NCCCCNCCCN` [Spermidine], the “Net (+) Charge” value in “net positive charge” is given as “+3”. Besides, the “increase in [Ca^2+]i relative to maximal extracellular Ca^2+” value in data set [1] (osteoclasts, 1000 µM) is recorded as “about 10%”.
Regarding `[H]/N=C(/N)N[C@H]1[C@H](O)[C@@H](O)[C@H](O[C@@H]2O[C@@H](C)[C@](O)(C=O)[C@H]2O[C@@H]2O[C@@H](CO)[C@H](O)[C@@H](O)[C@@H]2NC)[C@@H](N/C(N)=N\[H])[C@@H]1O` [Streptomycin], in the data set “net positive charge”, the “Net (+) Charge” value is “+3” and the “net positive charge at pH 7.3” value is reported as “+3”.
For `NCCNCCNCCNCCN` [TEPA, Tetraethylenepentamine], the “Net (+) Charge” value in the data set “net positive charge” is listed as “+5”.
Turning to `NCCNCCNCCN` [TETA, Triethylenetramine], in the data set “net positive charge”, the “Net (+) Charge” value is “+4”.
For the molecule `CCN(CC)CCCCCCCCOC(=O)c1cc(OC)c(OC)c(OC)c1` [TMB-8, reference compound], in data set [3], the “potentiation of mobilization of intracellular Ca^2+ elicited by extracellular divalent cations” value is “potentiated the mobilization; also recorded: potentiated transient increases in [Ca^2+ ]i”; the “change in [Ca^2+]i at low extracellular Ca^2+” value is “evoked no change in [Ca^2+ ]i”; the “increase in [Ca^2+]i at intermediate extracellular Ca^2+” value is recorded as “small, but robust increase”. For the same molecule, in data set [4] (100 μM), the “block of influx of extracellular Ca^2+” value was “blocked the influx”.
For the molecule `C[C@H](CCC(=O)O)C[C@H](C)C[C@H](C)C(=O)/C=C(\O)[C@H](C)C[C@H](C)C/C=C/[C@@H](C)[C@@H](O)[C@@H](C)[C@@H](O)C[C@@H]1CC[C@@](C)([C@H]2CC[C@@](C)([C@@H](C)O)O2)O1` [ionomycin, reference compound], the “effect on [Ca^2+]i response to extracellular Mg^2+” value in data set [3] is given as “blocks the response to Mg^2+”.
As to `CCC[C@@H]1C[C@@H](C(=O)N[C@@H]([C@H]2O[C@H](SC)[C@H](O)[C@@H](O)[C@H]2O)[C@@H](C)O)N(C)C1` [lincomycin, reference compound], the “net positive charge at pH 7.3” value in “net positive charge” was “+1”. Also, the “effect on intracellular Ca^2+” value in data set [3] is listed as “without effect”.
`COc1cccc(C(C)NCCC(c2ccccc2)c2ccccc2)c1` (stereo not shown) [meta-Methoxyfendiline]: the relative potency result in data set [3] (in words) is reported as “as potent as NPS 467”.
With `O=C(CC(O)(C(F)(F)F)C(F)(F)F)CC(O)(C(F)(F)F)C(F)(F)F` [molecule 1799, reference compound], in data set [3], the “effect on [Ca^2+]i response to extracellular Mg^2+” value is “without effect on the response to Mg^2+”.
Regarding `COC(=O)C1=C(C)NC(C)=C(C(=O)OC)C1c1ccccc1[N+](=O)[O-]` [nifedipine, reference compound], the “effect on basal [Ca^2+]i or increases evoked by extracellular Ca^2+” value in data set [3] is given as “None of the dihydropyridines tested”.
Still for that read-out and setting: the entry for `CCOC(=O)C1=C(C)NC(C)=C(C(=O)OC)C1c1cccc([N+](=O)[O-])c1` (stereo not shown) [nitrendipine, reference compound] is “None of the dihydropyridines tested”.
Consider `N[C@@H](Cn1oc(=O)[nH]c1=O)C(=O)O` [quisqualate, reference compound], for which the “response to mGluR agonists” value in data set [3] (bovine parathyroid cells, or Xenopus oocytes expressing calcium receptors) is on record as “did not respond”.
Regarding Gentamicin, in the data set “net positive charge”, the “Net (+) Charge” value is “+5” and the “net positive charge at pH 7.3” value is on record as “+5”.
